According to patent US9296698B2, “Amino heteroaryl compounds as beta-secretase modulators and methods of use” (Amgen Inc., priority 2009, dated 2016):
pIC50: −log10 of the molar value. Like-named read-outs stand apart in the source and are kept apart here.

Experiments:
[1] = test system: Aβ40 in conditioned medium of cells stably expressing Amyloid Precursor Protein (APP); experiment: In vitro BACE cell-based assay (HEK cell assay), Aβ40 sandwich ELISA
Summary of the method: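 Cells stably expressing APP received 10-point compound dilutions (top 100 μM or 10 μM; 0.1% DMSO) for 24 h. Secreted Aβ40 was quantified by sandwich ELISA (pAb40 capture, biotinylated 6E10 detection, europium time-resolved fluorescence). IC50 was derived from percent inhibition versus concentration.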

[2] = target: BACE 1 (Beta Secretase enzyme) (Homo sapiens, UniProt P56817); experiment: In vitro enzymatic BACE FRET assay; type: biochemical; design: BACE 1 FRET assay (uM): scale not given here
Summary of the method: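 BACE activity read by FRET: peptide substrate (50 nM) carrying fluorophore and quencher across the cleavage site, incubated one hour in 0.05 M acetate pH 4.2, 10% DMSO final, 100 uM genapol. Tris addition raises pH to neutrality to stop the reaction before fluorescence is read.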

[3] = IC50 range symbols, Table 1, Aβ40, 24 h incubation, read-out: HEK cell assay
[4] = IC50 range symbols, Table 1, read-out: BACE 1 FRET assay
[5] = Homo sapiens, HEK293, 24 h, IC50 range symbols, Table 1, Aβ40, 24 h incubation, read-out: HEK cell assay
[6] = bound stated, read-out: IC50 value in the FRET BACE enzyme assay

Sequence of BACE 1 (Beta Secretase enzyme) (P56817 46-501, species assumed): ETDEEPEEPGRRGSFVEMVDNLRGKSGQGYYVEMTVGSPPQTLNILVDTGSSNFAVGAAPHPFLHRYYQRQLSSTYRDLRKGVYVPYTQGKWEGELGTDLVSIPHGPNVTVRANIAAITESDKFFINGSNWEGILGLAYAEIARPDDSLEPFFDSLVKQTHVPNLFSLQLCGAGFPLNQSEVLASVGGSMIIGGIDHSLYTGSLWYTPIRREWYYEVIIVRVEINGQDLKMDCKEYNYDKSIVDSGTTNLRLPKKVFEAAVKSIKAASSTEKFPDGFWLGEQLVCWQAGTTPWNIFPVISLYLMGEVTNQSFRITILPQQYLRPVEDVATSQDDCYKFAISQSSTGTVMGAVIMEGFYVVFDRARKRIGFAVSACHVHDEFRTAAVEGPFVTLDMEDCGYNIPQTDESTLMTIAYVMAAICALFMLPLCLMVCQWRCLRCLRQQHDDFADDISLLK

Compound | pIC50 [1, 3] | pIC50 [2, 4] | pIC50 [1, 5] | pIC50 [2, 6] | BACE 1 FRET assay (uM) ([2]; IC50 range symbols, Table 1) | pIC50 ([1]; Homo sapiens, HEK293, bound stated in text, read-out: IC50 value in the BACE cell-based in-vitro assay)
3-(3-amino-7-o-tolylnaphthalen-2-yl)-N-(6,7-dihydro-5H-cyclopenta[b]pyridin-7-yl)-2-methylpropanamide [Example 73] | 5.30 to 6.00 | > 6.30 | – | – | – | –
3-(3-amino-7-o-tolylnaphthalen-2-yl)-N-(2-fluorophenyl)propanamide [Example 28] | 5.30 to 6.00 | 6.00 to 6.30 | – | – | – | –
CC(Cc1cc2cc(-c3ccccc3C#N)ccc2nc1N)C(=O)NC1CCOC(C)(C)C1 (stereo not shown) [Example 142, 3-(2-amino-6-(2-cyanophenyl)-3-quinolinyl)-N-(2,2-dimethyltetrahydro-2H-pyran-4-yl)-2-methylpropanamide] | – | > 6.30 | > 6.30 | – | – | –
CC(Cc1cc2cc(-c3ncccc3CCN(C)C)ccc2nc1N)C(=O)NCCC(C)(C)C (stereo not shown) [Example 127, 3-(2-amino-6-(3-(2-(dimethylamino)ethyl)pyridin-2-yl)quinolin-3-yl)-N-(3,3-dimethylbutyl)-2-methylpropanamide] | – | > 6.30 | > 6.30 | – | – | –
Nc1nc2ccc(-c3ccccc3Cl)cc2cc1CCC(=O)NCC1CCCCC1 [Example 3, 3-(2-amino-6-(2-chlorophenyl)quinolin-3-yl)-N-(cyclohexylmethyl)propanamide] | – | > 6.30 | 5.30 to 6.00 | – | – | –
CCC1CC1c1ccc2nc(N)c(CC(C)C(=O)NCCC(C)(C)C)cc2c1 (stereo not shown) [Example 120, 3-(2-amino-6-(2-ethylcyclopropyl)quinolin-3-yl)-N-(3,3-dimethylbutyl)-2-methylpropanamide] | – | 6.00 to 6.30 | < 5.30 | – | – | –
CC(Cc1cc2cc(-c3ccc(F)cc3Cl)ccc2nc1N)C(=O)NC1CCOC(C)(C)C1 (stereo not shown) [Example 166, 3-(2-amino-6-(2-chloro-4-fluorophenyl)-3-quinolinyl)-N-(2,2-dimethyltetrahydro-2H-pyran-4-yl)-2-methylpropanamide] | – | > 6.30 | 5.30 to 6.00 | – | – | –
CC(Cc1cc2cc(-c3ccccc3C(=O)C3CCCCC3)ccc2nc1N)C(=O)NC1CCOC(C)(C)C1 (stereo not shown) [Example 147, 3-(2-amino-6-(2-(cyclohexylcarbonyl)phenyl)-3-quinolinyl)-N-(2,2-dimethyltetrahydro-2H-pyran-4-yl)-2-methylpropanamide] | – | > 6.30 | > 6.30 | – | – | –
CC(Cc1cc2cc(-c3ccc(Cl)cc3)ccc2nc1N)C(=O)NC1CCOC(C)(C)C1 (stereo not shown) [Example 168, 3-(2-amino-6-(4-chlorophenyl)-3-quinolinyl)-N-(2,2-dimethyltetrahydro-2H-pyran-4-yl)-2-methylpropanamide] | – | > 6.30 | > 6.30 | – | – | –
CC(Cc1cc2cc(-c3cccc(Cl)c3)ccc2nc1N)C(=O)NC1CCOC2(CCC2)C1 (stereo not shown) [Example 11, 3-(2-amino-6-(3-chlorophenyl)-3-quinolinyl)-2-methyl-N-(5-oxaspiro[3,5]non-8-yl)propanamide] | – | > 6.30 | > 6.30 | > 7.30 | – | –
N-(2-fluorobenzyl)-3-(3-amino-7-o-tolylnaphthalen-2-yl)propanamide [Example 27] | 5.30 to 6.00 | > 6.30 | – | – | – | –
3-(3-amino-7-o-tolylnaphthalen-2-yl)-N-((R)-1-(2-fluorophenyl)ethyl)propanamide [Example 55] | 5.30 to 6.00 | > 6.30 | – | – | – | –
Nc1nc2ccc(-c3cccnc3)cc2cc1CCC(=O)NCC1CCCCC1 [Example 34, 3-(2-amino-6-(pyridin-3-yl)quinolin-3-yl)-N-(cyclohexylmethyl)propanamide] | – | – | 5.30 to 6.00 | – | _++ | –
CCCCOc1ccccc1-c1ccc2nc(N)c(CC(C)C(=O)NCC3CCCCC3)cc2c1 (stereo not shown) [Example 103, 3-(2-amino-6-(2-butoxyphenyl)quinolin-3-yl)-N-(cyclohexylmethyl)-2-methylpropanamide] | – | > 6.30 | > 6.30 | > 7.30 | – | –
Cc1cccnc1-c1cc2cc(CC(C)C(=O)NCCC(C)(C)C)c(N)nc2cc1F (stereo not shown) [Example 98, 3-(2-amino-7-fluoro-6-(3-methyl-2-pyridinyl)-3-quinolinyl)-N-(3,3-dimethylbutyl)-2-methylpropanamide] | – | > 6.30 | > 6.30 | > 7.30 | – | –
COc1ccccc1[C@@H](C)NC(=O)[C@@H](C)Cc1cc2cc(-c3ccccc3C)ccc2nc1N [Example 75, (S)-3-(2-amino-6-o-tolylquinolin-3-yl)-N-((R)-1-(2-methoxyphenyl)ethyl)-2-methylpropanamide] | – | > 6.30 | 5.30 to 6.00 | – | – | –
Cc1ccc(CNC(=O)CCc2cc3cc(-c4ccccc4C)ccc3nc2N)c(F)c1 [Example 68, N-(2-fluoro-4-methylbenzyl)-3-(2-amino-6-o-tolylquinolin-3-yl)propanamide] | – | 5.30 to 6.00 | < 5.30 | – | – | –
Cc1ccccc1-c1ccc2nc(N)c(CCC(=O)NC3CCOCC3)cc2c1 [Example 15, 3-(2-amino-6-o-tolylquinolin-3-yl)-N-(tetrahydro-2H-pyran-4-yl)propanamide] | – | > 6.30 | < 5.30 | – | – | –
CC(Cc1cc2cc(-c3cccc(Cl)c3)ccc2nc1N)C(=O)NC1CCOC(C)(C)C1 (stereo not shown) [Example 169, 3-(2-amino-6-(3-chlorophenyl)-3-quinolinyl)-N-(2,2-dimethyltetrahydro-2H-pyran-4-yl)-2-methylpropanamide] | – | > 6.30 | > 6.30 | – | – | > 7.00
CC(Cc1cc2cc(-c3ccccn3)ccc2nc1N)C(=O)NCCC(C)(C)C (stereo not shown) [Example 122, 3-(2-amino-6-(pyridin-2-yl)quinolin-3-yl)-N-(3,3-dimethylbutyl)-2-methylpropanamide] | – | > 6.30 | 6.00 to 6.30 | – | – | –
Cc1ccccc1-c1ccc2nc(N)c(CCC(=O)Nc3ccccc3)cc2c1 [Example 25, 3-(2-amino-6-o-tolylquinolin-3-yl)-N-phenylpropanamide] | – | > 6.30 | 6.00 to 6.30 | – | – | –
Cc1ccccc1-c1ccc2nc(N)c(CCC(=O)NCCC3CC3)cc2c1 [Example 115, 3-(2-amino-6-o-tolylquinolin-3-yl)-N-(2-cyclopropylethyl)propanamide] | – | > 6.30 | 5.30 to 6.00 | – | – | –
Cc1ccccc1-c1ccc2nc(N)c(CCC(=O)N[C@H](C)c3cccnc3)cc2c1 [Example 131, (R)-3-(2-amino-6-o-tolylquinolin-3-yl)-N-(1-(pyridin-3-yl)ethyl)propanamide] | 5.30 to 6.00 | > 6.30 | – | – | – | –
Cc1cccnc1-c1ccc2nc(N)c(CC(C)C(=O)NCCC(C)C)cc2c1 (stereo not shown) [Example 109, 3-(2-amino-6-(3-methylpyridin-2-yl)quinolin-3-yl)-N-isopentyl-2-methylpropanamide] | – | > 6.30 | > 6.30 | – | – | –
Nc1nc2ccc(-c3ccccc3)cc2cc1CCC(=O)NCC1CCCCC1 [Example 45, 3-(2-amino-6-phenylquinolin-3-yl)-N-(cyclohexylmethyl)propanamide] | – | 6.00 to 6.30 | < 5.30 | – | – | –
CC(Cc1cc2cc(-c3ncccc3Cl)ccc2nc1N)C(=O)NCCC(F)(F)F (stereo not shown) [Example 116, 3-(2-amino-6-(3-chloropyridin-2-yl)quinolin-3-yl)-2-methyl-N-(3,3,3-trifluoropropyl)propanamide] | – | 5.30 to 6.00 | < 5.30 | – | – | –
COc1ccccc1C(C)NC(=O)CCc1cc2cc(-c3ccccc3C)ccc2nc1N (stereo not shown) [Example 105, 3-(2-amino-6-o-tolylquinolin-3-yl)-N-(1-(2-methoxyphenyl)ethyl)propanamide] | – | > 6.30 | 5.30 to 6.00 | – | – | –
